Data published in US8846948B2, “Compounds” (Boehringer Ingelheim International GmbH, priority 2011, dated 2014).

What follows are compounds tested against T1, human recombinant mGluR5 (Homo sapiens, UniProt P41594) (assay: Positive modulation of mGluR5, calcium based FLIPR assay). Conditions: EC50 of the modulation; HEK 293 cell line expressing human recombinant mGluR5; peak height of Ca release fluorescence signal after glutamate at approximately 5% basal stimulation.
T1 construct: expressed in transfected cells; host or cells: HEK 293 cell line, cultured with tetracycline, hygromycin and geneticin
Procedure: The positive modulation of mGluR5 is measured in a HEK 293 cell line expressing human recombinant mGluR5 and is detected with calcium based FLIPR assay. The cells are cultured with DMEM supplemented with 10% FCS, 2 μg/mL tetracycline, 100 μg/mL hygromycin and 500 μg/mL gneticin. The cell culture media is exchanged for tetracycline-free cell culture media 3-7 days before the assay. One day before the assay the cell culture medium is exchanged to DMEM without glutamine and phenol red and supplemented with 10% FCS, 100 μg/mL hygromycin and 500 μg/mL geneticin. On the assay day, the medium of the subconfluent cultures is removed and the cells are detached by addition of 2.5 ml EDTA (0.02%) per 175 cm2 culture flask for 1 minute. The cells are resuspend in Ringer solution (140 mM NaCl, 5 mM KCl, 2.5 mM CaCl2, 1.5 mM MgCl2, 5 mM Glucose, 10 mM Hepes; adjusted to pH 7.4 with NaOH), pooled and Ringer solution added to adjust the volume to 50 mL. The cell suspension is centrifuged for […] at 1500 U/min (425 g). The supernatant is removed and the cells washed a second time with 50 ml fresh Ringer solution and centrifuged again as before. The supernatant is again removed and the pellet resuspended in Ringer solution to 1,000,000 cells/ml (1×10^6 cells/mL). The cells are plated onto BD BioCoat Poly-D-Lysine 384 well plates (20.000 cells/well; 20 μl/well). The lid covered plates are then incubated until use at 37° C./10% CO2. For dye loading, 20 μl of Calcium-4 assay kit solution (prepared according to the manufacturer's description in Ringer solution) are added to the cells and the plates are incubated for […] 37° C. and then […] at room temperature.
Controls, Compound dilution and assay execution:
Each assay plate contained wells with “high” and “low” controls:
Low controls 1% DMSO/ringer solution+basal glutamate activation (defined as 100% CTL).
High controls 10 μM CDPPB+basal glutamate activation (defined as 200% CTL).
Test compounds are dissolved and diluted in DMSO to 100-fold the desired concentrations. In a second step, the compounds are diluted in Ringer solution such that the compounds are 4-fold more concentrated than the desired final assay concentration. The final DMSO concentration was 1%.
20 μl of each compound solution are then transferred to the assay plate and the Ca2+ kinetic is measured to determine any intrinsic compound activity. After 5 mM incubation in the FLIPR device, the second stimulation with 20 μl of glutamate in Ringer solution (glutamate concentration adjusted to approximately 5% basal stimulation of the maximal possible glutamate effect) is added and the kinetic Ca2+ response of the wells was measured for the modulation effect.
The peak height of the Ca release related fluorescence signal (9-66) is used for the EC50. The EC50 of the modulation is calculated over a nonlinear regression with GraphPad Prism (Table 1).

T1 sequence (P41594 21-1212): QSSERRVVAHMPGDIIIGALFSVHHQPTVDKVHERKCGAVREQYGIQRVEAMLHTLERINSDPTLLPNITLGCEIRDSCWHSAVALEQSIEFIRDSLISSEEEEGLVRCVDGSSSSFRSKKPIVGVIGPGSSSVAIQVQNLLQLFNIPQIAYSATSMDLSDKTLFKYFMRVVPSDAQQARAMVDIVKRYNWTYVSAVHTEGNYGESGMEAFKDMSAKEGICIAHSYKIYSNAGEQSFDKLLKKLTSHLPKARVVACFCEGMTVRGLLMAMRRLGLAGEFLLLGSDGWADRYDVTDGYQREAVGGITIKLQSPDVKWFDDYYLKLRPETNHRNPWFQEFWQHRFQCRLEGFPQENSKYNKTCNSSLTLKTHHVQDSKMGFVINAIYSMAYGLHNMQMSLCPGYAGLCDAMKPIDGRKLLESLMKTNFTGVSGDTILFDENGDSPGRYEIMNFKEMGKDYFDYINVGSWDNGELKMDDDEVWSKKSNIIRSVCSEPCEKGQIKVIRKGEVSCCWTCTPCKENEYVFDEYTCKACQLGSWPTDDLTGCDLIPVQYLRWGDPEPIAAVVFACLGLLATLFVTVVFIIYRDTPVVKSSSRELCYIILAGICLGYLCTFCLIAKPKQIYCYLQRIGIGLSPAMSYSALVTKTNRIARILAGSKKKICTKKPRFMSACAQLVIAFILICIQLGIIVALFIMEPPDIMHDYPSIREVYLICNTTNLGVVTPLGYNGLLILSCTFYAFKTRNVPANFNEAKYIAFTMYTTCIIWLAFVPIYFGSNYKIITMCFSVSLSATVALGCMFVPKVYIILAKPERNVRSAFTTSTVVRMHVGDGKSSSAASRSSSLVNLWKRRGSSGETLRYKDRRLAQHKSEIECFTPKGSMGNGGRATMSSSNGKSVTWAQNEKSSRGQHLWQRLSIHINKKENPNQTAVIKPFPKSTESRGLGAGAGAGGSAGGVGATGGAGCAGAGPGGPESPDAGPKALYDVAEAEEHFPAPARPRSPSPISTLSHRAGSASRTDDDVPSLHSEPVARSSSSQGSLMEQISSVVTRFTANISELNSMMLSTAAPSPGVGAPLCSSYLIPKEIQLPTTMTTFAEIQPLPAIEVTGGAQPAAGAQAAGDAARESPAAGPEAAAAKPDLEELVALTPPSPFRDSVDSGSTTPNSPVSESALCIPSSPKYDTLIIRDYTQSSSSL

Structure (SMILES)	EC50 [nM]
Cc1cc(-c2cn(CC(=O)N3CCN(c4ncc(F)cn4)CC3)c(-c3ccccc3)n2)ccc1F [Example 7.01.08.]	97
COc1ccnc(N2CCN(C(=O)Cn3cc(-c4ccc(F)c(C)c4)nc3-c3ccc(F)cc3)CC2)c1 [Example 7.01.23.]	75
COc1cc(N2CCN(C(=O)Cn3cc(-c4ccc(F)c(C)c4)nc3C3CCCCC3)CC2)ncn1 [Example 7.01.09.]	1320
Cc1cc(-c2cn(CC(=O)N3CCN(c4cccnn4)CC3)c(-c3ccc(F)cc3)n2)ccc1F [Example 7.01.22.]	144
COc1cc(N2CCN(C(=O)Cn3cc(-c4ccc(F)cc4)nc3-c3ccccc3)CC2)ncn1 [Example 7.01.16.]	877
Cc1cc(-c2cn(CC(=O)N3CCN(c4ncnc5[nH]cnc45)CC3)c(-c3ccc(F)cc3)n2)ccc1F [Example 7.01.20.]	73
COc1cc(N2CCN(C(=O)Cn3cc(-c4ccc(F)c(C)c4)nc3-c3ccc(F)cc3)CC2)ncn1 [Example 7.01.18.]	99
Cc1cc(-c2cn(CC(=O)N3CCN(c4ccccn4)CC3)c(-c3ccccc3)n2)ccc1F [Example 7.01.06.]	76
Cc1cc(-c2cn(CC(=O)N3CCN(c4ncccn4)CC3)c(-c3ccccc3)n2)ccc1F [Example 7.01.03.]	41
O=C(Cn1cc(-c2ccccc2)nc1-c1ccccc1)N1CCN(c2ncccn2)CC1 [Example 7.01.01., 2-(2,4-Diphenyl-imidazol-1-yl)-1-(4-pyrimidin-2-yl-piperazin-1-yl)-ethanone]	1290
COc1cnc(N2CCN(C(=O)Cn3cc(-c4ccc(F)c(C)c4)nc3-c3ccccc3)CC2)nc1 [Example 7.01.07.]	53
Cc1cc(-c2cn(CC(=O)N3CCN(c4ncnc5[nH]cnc45)CC3)c(C3CCCCC3)n2)ccc1F [Example 7.01.13.]	857
Cc1cc(-c2cn(CC(=O)N3CCN(c4ccccn4)CC3)c(C3CCCCC3)n2)ccc1F [Example 7.01.11.]	710
COc1ccnc(N2CCN(C(=O)Cn3cc(-c4ccc(F)c(C)c4)nc3C3CCCCC3)CC2)c1 [Example 7.01.10.]	737
COc1ccnc(N2CCN(C(=O)Cn3cc(-c4ccc(F)c(C)c4)nc3-c3ccccc3)CC2)c1 [Example 7.01.02.]	84
Cc1cc(-c2cn(CC(=O)N3CCN(c4ncccn4)CC3)c(C3CCCCC3)n2)ccc1F [Example 7.01.12.]	458
COc1ccnc(N2CCN(C(=O)Cn3cc(-c4ccc(F)cc4)nc3-c3ccccc3)CC2)c1 [Example 7.01.14.]	306
Cc1cc(-c2cn(CC(=O)N3CCN(c4ncccn4)CC3)c(-c3ccc(F)cc3)n2)ccc1F [Example 7.01.19.]	31
O=C(Cn1cc(-c2ccc(F)cc2)nc1-c1ccccc1)N1CCN(c2ncnc3[nH]cnc23)CC1 [Example 7.01.15.]	858
Cc1cc(-c2cn(CC(=O)N3CCN(c4cccnn4)CC3)c(-c3ccccc3)n2)ccc1F [Example 7.01.04.]	363
COc1cc(N2CCN(C(=O)Cn3cc(-c4ccc(F)c(C)c4)nc3-c3ccccc3)CC2)ncn1 [Example 7.01.05.]	159
O=C(Cn1cc(-c2ccc(F)cc2)nc1-c1ccccc1)N1CCN(c2ccccn2)CC1 [Example 7.01.17.]	542

More lines, now with the values ahead:

EC50 [nM]	Structure (SMILES)
69	COc1cnc(N2CCN(C(=O)Cn3cc(-c4ccc(F)c(C)c4)nc3-c3ccc(F)cc3)CC2)nc1 [Example 7.01.25.]
40	COc1cc(-c2cn(CC(=O)N3CCN(c4ncccn4)CC3)c(-c3ccccc3)n2)ccc1F [Example 7.03.17.]
159	O=C(Cn1cc(-c2ccc(F)c(F)c2)nc1-c1ccccc1)N1CCN(c2ncccn2)CC1 [Example 7.03.10.]
238	COc1cc(N2CCN(C(=O)Cn3cc(-c4ccc(F)cc4)nc3-c3ccc(F)cc3)CC2)ncn1 [Example 7.01.27.]
914	CN1CCOc2cc(-c3cn(CC(=O)N4CCN(c5ncccn5)CC4)c(-c4ccccc4)n3)ccc21 [Example 7.03.11.]
131	Cc1cccc(-c2cn(CC(=O)N3CCN(c4ncnc5[nH]cnc45)CC3)c(-c3ccccc3)n2)c1 [Example 7.01.32.]
183	O=C(Cn1cc(-c2cccc(C(F)(F)F)c2)nc1-c1ccccc1)N1CCN(c2ncccn2)CC1 [Example 7.03.14.]
858	Cc1cccc(-c2cn(CC(=O)N3CCN(c4cccnn4)CC3)c(-c3ccccc3)n2)c1 [Example 7.01.34.]
38	Cc1cc(-c2cn(CC(=O)N3CCN(c4ncccn4)CC3)c(-c3ccccc3)n2)cc(C)c1F [Example 7.03.07.]
29	COc1cc(-c2cn(CC(=O)N3CCN(c4ncccn4)CC3)c(-c3ccccc3)n2)ccc1C [Example 7.03.12.]
158	O=C(Cn1cc(-c2cccc(Cl)c2)nc1-c1ccccc1)N1CCN(c2ncccn2)CC1 [Example 7.03.13.]
61	O=C(Cn1cc(-c2ccc3c(c2)CCCO3)nc1-c1ccccc1)N1CCN(c2ncccn2)CC1 [Example 7.03.15.]
73	Cc1cccc(-c2cn(CC(=O)N3CCN(c4ccccn4)CC3)c(-c3ccccc3)n2)c1 [Example 7.01.35.]
262	O=C(Cn1cc(-c2ccc(F)cc2)nc1-c1ccc(F)cc1)N1CCN(c2ncnc3[nH]cnc23)CC1 [Example 7.01.28.]
48	Cc1ccc(-c2cn(CC(=O)N3CCN(c4ncccn4)CC3)c(-c3ccccc3)n2)cc1Cl [Example 7.03.09.]
464	COc1ccc(-c2cn(CC(=O)N3CCN(c4ccccn4)CC3)c(-c3ccccc3)n2)cc1 [Example 7.02.01., 2-[4-(4-Methoxy-phenyl)-2-phenyl-imidazol-1-yl]-1-(4-pyridin-2-yl-piperazin-1-yl)-ethanone]
680	CCOc1ccc(-c2cn(CC(=O)N3CCN(c4ncccn4)CC3)c(-c3ccccc3)n2)cc1 [Example 7.03.06.]

EC50 [nM]	Structure (SMILES)
244	O=C(Cn1cc(-c2ccc(F)cc2)nc1-c1ccc(F)cc1)N1CCN(c2ccccn2)CC1 [Example 7.01.31.]
74	CCc1ccc(-c2cn(CC(=O)N3CCN(c4ncccn4)CC3)c(-c3ccccc3)n2)cc1 [Example 7.03.18.]
1640	Cc1ccc(-c2nc(-c3ccccc3)cn2CC(=O)N2CCN(c3ccccn3)CC2)cc1 [Example 7.02.02.]
151	CCOc1cccc(-c2cn(CC(=O)N3CCN(c4ncccn4)CC3)c(-c3ccccc3)n2)c1 [Example 7.03.08.]
272	O=C(Cn1cc(-c2ccc(F)cc2)nc1-c1ccccc1)N1CCN(c2ncccn2)CC1 [Example 7.03.01., 2-[4-(4-Fluoro-phenyl)-2-phenyl-imidazol-1-yl]-1-(4-pyrimidin-2-yl-piperazin-1-yl)-ethanone]
148	COc1ccnc(N2CCN(C(=O)Cn3cc(-c4cccc(C)c4)nc3-c3ccccc3)CC2)c1 [Example 7.01.33.]
83	Cc1cc(-c2cn(CC(=O)N3CCN(c4ncc(F)cn4)CC3)c(-c3ccc(F)cc3)n2)ccc1F [Example 7.01.26.]
67	Cc1ccc(-c2cn(CC(=O)N3CCN(c4ncccn4)CC3)c(-c3ccccc3)n2)cc1 [Example 7.03.02.]
168	COc1ccnc(N2CCN(C(=O)Cn3cc(-c4ccc(F)cc4)nc3-c3ccc(F)cc3)CC2)c1 [Example 7.01.30.]
147	Cc1cc(-c2cn(CC(=O)N3CCN(c4ncncn4)CC3)c(-c3ccc(F)cc3)n2)ccc1F [Example 7.01.24.]
1530	Cn1cnc2ccc(-c3cn(CC(=O)N4CCN(c5ncccn5)CC4)c(-c4ccccc4)n3)cc21 [Example 7.03.16.]
395	O=C(Cn1cc(-c2cccc(F)c2)nc1-c1ccccc1)N1CCN(c2ncccn2)CC1 [Example 7.03.04.]
54	Cc1cc(-c2cn(CC(=O)N3CCN(c4ncccn4)CC3)c(-c3ccccc3)n2)ccc1Cl [Example 7.03.03.]
196	COc1cc(N2CCN(C(=O)Cn3cc(-c4cccc(C)c4)nc3-c3ccccc3)CC2)ncn1 [Example 7.01.36.]
87	O=C(Cn1cc(-c2ccc(F)c(Cl)c2)nc1-c1ccccc1)N1CCN(c2ncccn2)CC1 [Example 7.03.05.]
889	O=C(Cn1cc(-c2ccc(F)cc2)nc1-c1ccc(F)cc1)N1CCN(c2cccnn2)CC1 [Example 7.01.29.]
